Test results: US8637525B2, “Compounds for the reduction of beta-amyloid production” (Bristol-Myers Squibb Company, priority 2009, dated 2014)
Where a name gives a salt, the structure may show the parent alone.

test system: Aβ1-42 production; assay: Cellular assay for inhibition of Aβ1-42 production (H4 APP751 SWE clone 8.20); format: cell-based; settings: 19 h, H4 APP751 SWE clone 8.20 cells, 19 h incubation; class symbols; read-out: Activity Rating (Aβ42 cellular IC50)
Procedure, shortened: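 Compound-treated cells were incubated 19 h at 37 °C in 5% CO2. Aβ42 in the cell plate was detected overnight at 4 °C with an Aβ42 neoepitope antibody (565, Wallac-labelled, 0.8 ng/well) plus N-terminal antibody 26D6 (APC, 75 ng/well) in 40 mM Tris-HCl pH 7.4, 0.2% BSA. IC50s came from curve fitting.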

COc1cc(Nc2nc3c(c(N4CC[C@H](F)C4)n2)CCC3c2ccc(F)cc2)ccc1-n1cnc(Cl)c1 (single isomer, unassigned) [Example 36] and COc1cc(Nc2nc3c(c(N4CCC(C(F)(F)F)C4)n2)CCC3c2ccc(F)cc2)ccc1-n1cnc(Cl)c1 (stereo not shown) [Example 41A, N-(4-(4-chloro-1H-imidazol-1-yl)-3-methoxyphenyl)-7-(4-fluorophenyl)-4-(3-(trifluoromethyl)pyrrolidin-1-yl)-6,7-dihydro-5H-cyclopenta[d]pyrimidin-2-amine] fall in the same range of IC50: 10 to 100 nM for the first, 10 to 100 nM for the second.

CNc1nc(Nc2ccc(-n3cnc(Cl)c3)c(OC)c2)nc2c1COCC2c1ccc(F)c(F)c1 (racemic) [Example 115, N2-(4-(4-chloro-1H-imidazol-1-yl)-3-methoxyphenyl)-8-(3,4-difluorophenyl)-N4-methyl-7,8-dihydro-5H-pyrano[4,3-d]pyrimidine-2,4-diamine, TFA] and CNc1nc(Nc2ccc(-n3cnc(Cl)c3)c(OC)c2)nc2c1CCC2c1ccc(F)cc1F (single isomer, unassigned) [Example 109A, N^2-(4-(4-Chloro-1H-imidazol-1-yl)-3-methoxyphenyl)-7-(2,4-difluorophenyl)-N^4-methyl-6,7-dihydro-5H-cyclopenta[d]pyrimidine-2,4-diamine] fall in the same range of IC50: 1.5 to 9.9 nM for the first, 1.5 to 9.9 nM for the second.

CNc1nc(Nc2ccc(-n3ncnc3C)c(F)c2)nc2c1CN(C)CC2c1ccccc1 (stereo not shown) [Example 150, N2-(3-fluoro-4-(5-methyl-1H-1,2,4-triazol-1-yl)phenyl)-N4,6-dimethyl-8-phenyl-5,6,7,8-tetrahydropyrido[4,3-d]pyrimidine-2,4-diamine] and CNc1nc(Nc2ccc(-n3ncnc3C)c(OC)c2)nc2c1CC[C@@H]2c1ccc(F)cc1 [Example 264B, (R)-7-(4-fluorophenyl)-N2-(3-methoxy-4-(5-methyl-1H-1,2,4-triazol-1-yl)phenyl)-N4-methyl-6,7-dihydro-5H-cyclopenta[d]pyrimidine-2,4-diamine] fall in the same range of IC50: 10 to 100 nM for the first, 10 to 100 nM for the second.

First: CNc1nc(Nc2ccc(C(C)=O)cc2)nc2c1CCC2c1ccccc1 (stereo not shown) [Example 257, 1-(4-(4-(methylamino)-7-phenyl-6,7-dihydro-5H-cyclopenta[d]pyrimidin-2-ylamino)phenyl)ethanone]
Second: CNc1nc(Nc2ccc(-c3cc(Cl)ncn3)c(OC)c2)nc2c1CCC2c1ccccc1 (stereo not shown) [Example 277, N2-(4-(6-chloropyrimidin-4-yl)-3-methoxyphenyl)-N4-methyl-7-phenyl-6,7-dihydro-5H-cyclopenta[d]pyrimidine-2,4-diamine]
The IC50 of the first is lower: 10 to 100 nM for the first, > 1000 nM for the second.

First: CNc1nc(Nc2ccc(-n3cnc(Cl)c3)c(OC)c2)nc2c1CN(S(C)(=O)=O)CC2c1ccccc1 (racemic) [Example 129, N2-(4-(4-chloro-1H-imidazol-1-yl)-3-methoxyphenyl)-N4-methyl-6-(methylsulfonyl)-8-phenyl-5,6,7,8-tetrahydropyrido[4,3-d]pyrimidine-2,4-diamine]
Second: CCNc1nc(Nc2ccc(-n3cnc(Cl)c3)c(OC)c2)nc2c1CN(C)CC2c1ccccc1 (stereo not shown) [Example 151, N2-(4-(4-chloro-1H-imidazol-1-yl)-3-methoxyphenyl)-N4-ethyl-6-methyl-8-phenyl-5,6,7,8-tetrahydropyrido[4,3-d]pyrimidine-2,4-diamine]
The IC50 of the first is higher: 10 to 100 nM for the first, 1.5 to 9.9 nM for the second.

First: COc1cc(Nc2nc3c(c(N4CCC(O)(C(F)(F)F)C4)n2)CCC3c2ccc(F)cc2)ccc1-n1cnc(Cl)c1 (single isomer, unassigned) [Example 27, 1-(2-(4-(4-chloro-1H-imidazol-1-yl)-3-methoxyphenylamino)-7-(4-fluorophenyl)-6,7-dihydro-5H-cyclopenta[d]pyrimidin-4-yl)-3-(trifluoromethyl)pyrrolidin-3-ol]
Second: CCNc1nc(Nc2ccc(-n3cnc(Cl)c3)c(OC)c2)nc2c1CCN(S(C)(=O)=O)C2c1ccc(F)cc1 (stereo not shown) [Example 168A, N2-(4-(4-chloro-1H-imidazol-1-yl)-3-methoxyphenyl)-N4-ethyl-8-(4-fluorophenyl)-7-(methylsulfonyl)-5,6,7,8-tetrahydropyrido[3,4-d]pyrimidine-2,4-diamine]
The IC50 of the first is higher: 10 to 100 nM for the first, 1.5 to 9.9 nM for the second. The second is the more potent here.

CCN(C)c1nc(Nc2ccc(-n3cnc(Cl)c3)c(OC)c2)nc2c1CCCC2c1ccccc1 (racemic) [Example 124, N^2-(4-(4-Chloro-1H-imidazol-1-yl)-3-methoxyphenyl)-N^4-ethyl-N^4-methyl-8-phenyl-5,6,7,8-tetrahydroquinazoline-2,4-diamine] and Cc1ncnn1-c1ccc(Nc2nc3c(c(N(C)C)n2)COCC3c2ccc(Cl)cc2)cc1F (single isomer, unassigned) [Example 67A, 8-(4-chlorophenyl)-N^2-(3-fluoro-4-(5-methyl-1H-1,2,4-triazol-1-yl)phenyl)-N^4,N^4-dimethyl-7,8-dihydro-5H-pyrano[4,3-d]pyrimidine-2,4-diamine] fall in the same range of IC50: 10 to 100 nM for the first, 10 to 100 nM for the second.

same assay, conditions: 19 h, H4 APP751 SWE clone 8.20 cells, 19 h incubation; read-out: Activity Rating (Aβ42 cellular IC50), numeric value

In order of falling IC50:
1. COc1cc(Nc2nc3c(c(N4CC[C@@H](F)C4)n2)CCN(S(C)(=O)=O)C3c2ccc(F)cc2)ccc1-n1cnc(Cl)c1 (stereo partly shown) [Example 173]  490 nM
2. COc1cc(Nc2nc(Nc3cc(C(C)C)ccc3C)c3c(n2)C(c2ccccc2)CC3)ccc1-n1cnc(Cl)c1 (stereo not shown) [Example 214, N2-(4-(4-chloro-1H-imidazol-1-yl)-3-methoxyphenyl)-N4-(5-isopropyl-2-methylphenyl)-7-phenyl-6,7-dihydro-5H-cyclopenta[d]pyrimidine-2,4-diamine]  77 nM
3. COc1cc(Nc2nc3c(c(N(C)C(C)=O)n2)CCC3c2ccccc2)ccc1-n1cnc(Cl)c1 (stereo not shown) [Example 212, N-(2-(4-(4-chloro-1H-imidazol-1-yl)-3-methoxyphenylamino)-7-phenyl-6,7-dihydro-5H-cyclopenta[d]pyrimidin-4-yl)-N-methylacetamide]  33 nM
4. COc1cc(Nc2nc3c(c(N4CC5(CCCO5)C4)n2)CCC3c2ccccc2)ccc1-n1cnc(Cl)c1 (stereo not shown) [Example 188, N-(4-(4-chloro-1H-imidazol-1-yl)-3-methoxyphenyl)-7-phenyl-4-(5-oxa-2-azaspiro[3.4]octan-2-yl)-6,7-dihydro-5H-cyclopenta[d]pyrimidin-2-amine]  19 nM
5. CNc1nc(Nc2ccc(-n3cnc(Cl)c3)c(OC)c2)nc2c1CCC2c1ccc(F)c(F)c1 (single isomer, unassigned) [Example 96B, N^2-(4-(4-chloro-1H-imidazol-1-yl)-3-methoxyphenyl)-7-(3,4-difluorophenyl)-N^4-methyl-6,7-dihydro-5H-cyclopenta[d]pyrimidine-2,4-diamine]  4.6 nM
6. CNc1nc(Nc2ccc(-n3ncnc3C)c(F)c2)nc2c1COCC2c1ccc(Br)cc1 (stereo not shown) [Example 73, 8-(4-bromophenyl)-N^2-(3-fluoro-4-(5-methyl-1H-1,2,4-triazol-1-yl)phenyl)-N^4-methyl-7,8-dihydro-5H-pyrano[4,3-d]pyrimidine-2,4-diamine]  3.8 nM

same assay, conditions: H4 APP751 SWE clone 8.20 cells, 19 h incubation; class symbols; read-out: Activity Rating (Aβ42 cellular IC50)

First: CNc1nc(Nc2ccc(-n3cnc(Cl)c3)c(OC)c2)nc2c1CCCC2c1ccccc1 (stereo not shown) [Example 203B, N2-(4-(4-chloro-1H-imidazol-1-yl)-3-methoxyphenyl)-N4-methyl-8-phenyl-5,6,7,8-tetrahydroquinazoline-2,4-diamine]
Second: COc1cc(Nc2nc3c(c(N(C)C)n2)CCC3c2ccccc2)ccc1-n1cnc(Cl)c1 (single isomer, unassigned) [Example 4A, N^2-(4-(4-chloro-1H-imidazol-1-yl)-3-methoxyphenyl)-N^4,N^4-dimethyl-7-phenyl-6,7-dihydro-5H-cyclopenta[d]pyrimidine-2,4-diamine]
The IC50 of the first is higher: 10 to 100 nM for the first, 1.5 to 9.9 nM for the second. The second is the more potent here.

First: CCNc1nc(Nc2ccc(-n3cnc(Cl)c3)c(OC)c2)nc2c1CCC2c1ccc(OC(F)(F)F)cc1 (single isomer, unassigned) [Example 98B, N^2-(4-(4-Chloro-1H-imidazol-1-yl)-3-methoxyphenyl)-N^4-ethyl-7-(4-(trifluoromethoxy)phenyl)-6,7-dihydro-5H-cyclopenta[d]pyrimidine-2,4-diamine]
Second: COc1cc(Nc2nc3c(c(N4CCCC4C)n2)CCC3c2ccc(F)cc2)ccc1-n1cnc(Cl)c1 (single isomer, unassigned) [Example 20, N-(4-(4-chloro-1H-imidazol-1-yl)-3-methoxyphenyl)-7-(4-fluorophenyl)-4-(2-methylpyrrolidin-1-yl)-6,7-dihydro-5H-cyclopenta[d]pyrimidin-2-amine]
The IC50 of the first is higher: 10 to 100 nM for the first, 1.5 to 9.9 nM for the second.

Compared with CNc1nc(Nc2ccc(-n3cnc(C)c3)c(OC)c2)nc2c1COCC2c1ccc(Cl)cc1 (single isomer, unassigned) [Example 70B, 8-(4-chlorophenyl)-N^2-(3-methoxy-4-(4-methyl-1H-imidazol-1-yl)phenyl)-N^4-methyl-7,8-dihydro-5H-pyrano[4,3-d]pyrimidine-2,4-diamine], CNc1nc(Nc2ccc(-n3ncnc3C)c(OC)c2)nc2c1CN(C)CC2c1ccc(F)cc1 (stereo not shown) [Example 199A, 8-(4-fluorophenyl)-N2-(3-methoxy-4-(5-methyl-1H-1,2,4-triazol-1-yl)phenyl)-N4,6-dimethyl-5,6,7,8-tetrahydropyrido[4,3-d]pyrimidine-2,4-diamine] is higher in IC50: 10 to 100 nM for the first, 100 to 1000 nM for the second.

CCNc1nc(Nc2ccc(-n3ncnc3C)c(F)c2)nc2c1CN(S(C)(=O)=O)CC2c1ccccc1 (stereo not shown) [Example 140, N4-ethyl-N2-(3-fluoro-4-(5-methyl-1H-1,2,4-triazol-1-yl)phenyl)-6-(methylsulfonyl)-8-phenyl-5,6,7,8-tetrahydropyrido[4,3-d]pyrimidine-2,4-diamine] gave an IC50 of 10 to 100 nM.

same assay, conditions: H4 APP751 SWE clone 8.20 cells, 19 h incubation; read-out: Activity Rating (Aβ42 cellular IC50), numeric value

CCNc1nc(Nc2ccc(-n3cnc(Cl)c3)c(OC)c2)nc2c1CN(CC(F)F)CC2c1ccccc1 (stereo not shown) [Example 197, N4-ethyl-N2-(3-methoxy-4-(4-chloro-1H-13-imidazol-1-yl)phenyl)-8-phenyl-6-(2,2-difluoroethyl)-5,6,7,8-tetrahydropyrido[4,3-d]pyrimidine-2,4-diamine] gave an IC50 of 16 nM.
